The target in data set [1] is T1, MMP-13 (Homo sapiens, UniProt P45452).
T1 construct: purchased R&D Systems 511-MP
Briefly: In vitro MMP-13 inhibition test. The data set is classed as biochemical. The text has this:
(§1) The MMP-mediated amidolytic cleavage of a suitable peptide substrate leads to an increase in fluorescent light here too. The signal intensity of the fluorescent light is directly proportional to the enzyme activity. The active concentration of a test compound at which half the enzyme is inhibited (50% signal intensity of the fluorescent light) is reported as the […].
(§2) Recombinant MMP-13 (from R&D Systems, 511-MP) is chemically activated in accordance with the manufacturer's instructions using APMA. 1 μl of the test compound to be analysed (as a solution in DMSO, suitable concentrations, for example, 1 nM to 30 μM) is pipetted into 24 μl of activated enzyme (final concentration, for example, 0.1 nM) in reaction buffer (50 mM Tris/HCl pH 7.5, 10 mM CaCl2, 150 mM NaCl, 0.05% Brij®-35) in a white 384-hole microtiter plate (MTP). The enzymatic reaction is started by adding the intramolecularly quenched Mca-Pro-Leu-Gly-Leu-Dpa(Dnp)-Ala-Arg-NH2 substrate (final concentration, for example, 10 μM; R&D Systems, ES-001), so as to result in a total test volume of 50 μl. The course of the MMP-13 reaction is measured by measuring the fluorescence intensity (excitation 320 nm, emission 410 nm) over a suitable period of time (for example over 120 min at a temperature of 32° C.).

Data set [2] has as its target T2, MMP-7 (Homo sapiens, UniProt P09237).
T2 construct: purchased R&D Systems 907-MP
T2 sequence (P09237 95-267): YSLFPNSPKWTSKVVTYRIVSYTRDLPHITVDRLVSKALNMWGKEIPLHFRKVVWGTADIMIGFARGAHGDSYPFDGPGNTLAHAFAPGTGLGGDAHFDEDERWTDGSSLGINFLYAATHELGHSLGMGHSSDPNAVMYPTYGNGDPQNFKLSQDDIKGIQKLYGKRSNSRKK
Briefly: In vitro MMP-7 inhibition test. The data set is classed as biochemical.
Source text: as §1
as §2, with “MMP-7” for “MMP-13”, “907-MP)” for “511-MP)”, “0.5” for “0.1”

For data set [3], the target named is T3, MMP-8 (Homo sapiens, UniProt P22894).
T3 construct: purchased R&D Systems 908-MP
As to the kind of experiment: In vitro MMP-8 inhibition test. The data set is classed as biochemical.
Source text: as §1
as §2, with “MMP-8” for “MMP-13”, “908-MP)” for “511-MP)”, “0.5” for “0.1”

The subject of data set [4] is rat hepatocytes. Briefly: Hepatocyte assay for determination of metabolic stability. As to conditions: after incubation with rat hepatocytes.
Experimental: Seven samples from the incubation solution are taken for the LC-MS analysis within a fixed time pattern, in order to determine the half-life (i.e. the degradation) of the particular compound. This half life is used to calculate various “Clearance” parameters (CL) and “Fmax” values (see below).
The CL and Fmax values are a measure of the phase 1 and phase 2 metabolism of the compounds in the hepatocytes. In order to minimize the influence of the organic solvent on the enzymes in the incubation batches, the concentration thereof is generally limited to 1% (acetonitrile) or 0.1% (DMSO).
For all species and breeds, a hepatocyte cell count in the liver of 1.1*10^8 cells/g of liver is expected.
The parameters calculated and the meanings thereof are: • Fmax well-stirred [%] maximum possible bioavailability after oral administration • Calculation: (1-CLblood well-stirred/QH)*100 • CLblood well-stirred [L/(h*kg)] calculated blood clearance (well-stirred model) • Calculation: (QH*CLintrinsic)/(QH+CL′intrinsic) • CL′intrinsic[ml/(min*kg)] maximum ability of the liver (of the hepatocytes) to metabolize a compound (assuming that the liver blood flow is not rate-limiting) • Calculation: CLintrinsic, apparent* species-specific hepatocyte count [1.1* 10^8/g liver]*species-specific liver weight [g/kg] • CL′intrinsic, apparent[ml/(min*mg)] normalizes the elimination constant by dividing it by the hepatocyte cell count x used (x*10^6/ml) • Calculation: kcl[1/min]/(cell count [x*10^6]/incubation volume [ml]) • (QH=species-specific liver blood flow).

T3 sequence (P22894 101-467): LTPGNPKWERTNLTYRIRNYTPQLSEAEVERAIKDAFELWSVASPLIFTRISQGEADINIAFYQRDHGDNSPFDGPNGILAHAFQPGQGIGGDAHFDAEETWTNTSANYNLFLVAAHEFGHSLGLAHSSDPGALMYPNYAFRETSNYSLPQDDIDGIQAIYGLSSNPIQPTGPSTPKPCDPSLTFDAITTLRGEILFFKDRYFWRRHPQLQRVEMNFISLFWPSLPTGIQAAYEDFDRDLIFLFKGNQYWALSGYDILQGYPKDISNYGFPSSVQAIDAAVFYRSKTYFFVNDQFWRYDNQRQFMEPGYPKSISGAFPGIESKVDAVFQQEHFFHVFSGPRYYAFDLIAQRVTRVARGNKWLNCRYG

As for `O=C(O)[C@@H]1[C@@H](Cn2nnc3ccccc3c2=O)CC[C@H]1C(=O)c1ccc(OCCC2CCOCC2)cc1` (single isomer, unassigned) [Example 5, (+)-(1RS,2SR,5RS)-2-[(4-Oxo-1,2,3-benzotriazin-3(4H)-yl)methyl]-5-{4-[2-(tetrahydro-2H-pyran-4-yl)ethoxy]benzoyl}cyclopentanecarboxylic acid], the IC50 in data set [1] was 67 nM; in data set [2], 600 nM; in data set [3] it was 15 nM.
For `O=C(O)[C@H]1[C@H](Cn2nnc3ccc(C(F)(F)F)cc3c2=O)CC[C@@H]1C(=O)c1ccc(OCC2CCOCC2)cc1` (racemic) [Example 7, (+/−)-(1RS,2SR,5RS)-2-{[4-Oxo-6-(trifluoromethyl)-1,2,3-benzotriazin-3(4H)-yl]methyl}-5-[4-(tetrahydro-2H-pyran-4-ylmethoxy)benzoyl]cyclopentanecarboxylic acid], the values for the IC50 in data set [1], in data set [2] and in data set [3] were 140 nM, 130 nM and 1 nM, respectively.
In the same order, the values of `O=C(O)[C@H]1[C@H](Cn2nnc3ccc(C(F)(F)F)cc3c2=O)CC[C@@H]1C(=O)c1ccc(OCCC2CCOCC2)cc1` (stereo in doubt) [Example 10, (+/−)-(1RS ,2S R,5RS)-2-{[4-Oxo-6-(trifluoromethyl)-1,2,3-benzotriazin-3(4H)-yl]methyl}-5-{4-[2-(tetrahydro-2H-pyran-4-yl)ethoxy]benzoyl}cyclopentanecarboxylic acid] are 230 nM, 96 nM and 3.9 nM.
Take `Cc1ccc2nnn(C[C@@H]3CC[C@H](C(=O)c4ccc(OCCC5CCOCC5)cc4)[C@H]3C(=O)O)c(=O)c2c1` (racemic) [Example 19, (+/−)-(1RS,2SR,5RS)-2-[(6-Methyl-4-oxo-1,2,3-benzotriazin-3(4H)-yl)methyl]-5-{4-[2-(letrahydro-2H-pyran-4-yl)ethoxy]benzoyl}cyclopentanecarboxylic acid]: the IC50 in data set [1] came to 590 nM; in data set [2] it was 1100 nM; in data set [3], 28 nM.
Regarding `O=C(O)[C@@H]1[C@@H](Cn2nnc3ccccc3c2=O)CC[C@H]1C(=O)c1ccc(OCC2CCOCC2)cc1` (stereo in doubt) [Example 2, (+)-(1RS,2SR,5RS)-2-[(4-Oxo-1,2,3-benzotriazin-3(4H)-yl)methyl]-5-[4-(tetrahydro-2H-pyran-4-ylmethoxy)benzoyl]cyclopentanecarboxylic acid], the IC50 in data set [1] was 49 nM; in data set [2], 640 nM; in data set [3], 4.7 nM. Moreover, the “CLblood (calculated blood clearance, well-stirred)” value in data set [4] was 7.33 mL/min/kg. In addition, the “Fmax (maximum possible bioavailability after oral administration, well-stirred)” value (“Fmax” below) in data set [4] worked out at 89.5%.
Take “(+)-(1RS,2SR,5RS)-2-{[4-Oxo-6-(trifluoromethyl)-1,2,3-benzotriazin-3(4H)-yl]methyl}-5-[4-(tetra-hydro-2H-pyran-4-ylmethoxy)benzoyl]cyclopentanecarboxylic acid [Example 8]”: the results for the IC50 in data set [1], in data set [2] and in data set [3] were 51 nM, 45 nM and 0.6 nM, respectively. In addition, the “CLblood (calculated blood clearance, well-stirred)” value in data set [4] is 4.83 mL/min/kg. Also, the “Fmax” value in data set [4] is on record as 93.1%.
In the case of `Cc1ccc2nnn(C[C@H]3CC[C@@H](C(=O)c4ccc(OCCC5CCOCC5)cc4)[C@@H]3C(=O)O)c(=O)c2c1` (single isomer, unassigned) [Example 20, (+)-(1RS,2SR,5RS)-2-[(6-Methyl-4-oxo-1,2,3-benzotriazin-3(4H)-yl)methyl]-5-{4-[2-(tetrahydro-2H-pyran-4-yl)ethoxy]benzoyl}cyclopentanecarboxylic acid], the results for the IC50 in data set [1], in data set [2] and in data set [3] were 170 nM, 290 nM and 10 nM, respectively.
As for `O=C(O)[C@H]1[C@H](Cn2nnc3ccccc3c2=O)CC[C@@H]1C(=O)c1ccc(OCCC2CCOCC2)cc1` (stereo in doubt) [Example 4, (+/−)-(1RS,2SR,5RS)-2-[(4-Oxo-1,2,3-benzotriazin-3(4H)-yl)methyl]-5-{4-[2-(tetrahydro-2H-pyran-4-yl)ethoxy]benzoyl}cyclopentanecarboxylic acid], the IC50 in data set [1] is 460 nM; in data set [2], 3200 nM; in data set [3] it was 98 nM.
With `O=C(O)[C@@H]1[C@@H](Cn2nnc3ccc(C(F)(F)F)cc3c2=O)CC[C@H]1C(=O)c1ccc(OCCC2CCOCC2)cc1` (single isomer, unassigned) [Example 11, (+)-(1RS,2SR,5RS)-2-{[4-Oxo-6-(trifluoromethyl)-1,2,3-benzotriazin-3(4H)-yl]methyl}-5-{4-[2-(tetrahydro-2H-pyran-4-yl)ethoxy]benzoyl}cyclopentanecarboxylic acid], the values for the IC50 in data set [1], in data set [2] and in data set [3] were 470 nM, 190 nM and 5.6 nM, respectively.
In the same order, the values of `O=C(O)[C@@H]1[C@@H](Cn2nnc3ccc(C(F)(F)F)cc3c2=O)CC[C@H]1C(=O)c1ccc(SCC2CCOCC2)cc1` (single isomer, unassigned) [Example 15, (+)-(1RS,2SR,5RS)-2-{[4-Oxo-6-(trifluoromethyl)-1,2,3-benzotriazin-3(4H)-yl]methyl}-5-{4-[(tetrahydro-2H-pyran-4-ylmethyl)sulphanyl]benzoyl}cyclopentanecarboxylic acid] are 220 nM, 80 nM and 0.9 nM.
`O=C(O)[C@H]1[C@H](Cn2nnc3ccccc3c2=O)CC[C@@H]1C(=O)c1ccc(OCC2CCOCC2)cc1` (stereo in doubt) [Example 1, (+/−)-(1RS,2SR,5RS)-2-[(4-Oxo-1,2,3-benzotriazin-3(4H)-yl)methyl]-5-[4-(tetrahydro-2H-pyran-4-ylmethoxy)benzoyl]cyclopentanecarboxylic acid]: the values for the IC50 in data set [1], in data set [2] and in data set [3] were 110 nM, 1200 nM and 11 nM, respectively. For the same compound, the “CLblood (calculated blood clearance, well-stirred)” value in data set [4] was 17 mL/min/kg. Moreover, the “Fmax” value in data set [4] worked out at 75.7%.

The IC50 is the concentration that inhibits the measured activity by half.

The values above are taken from patent publication US20170114049A1, “2,5-DISUBSTITUTED CYCLOPENTANE CARBOXYLIC ACIDS FOR THE TREATMENT OF RESPIRATORY TRACT DISEASES” (BAYER PHARMA AKTIENGESELLSCHAFT, priority 2014, published 2017).
